Where “and” joins values, the source holds several entries; their conditions need not be identical. Equal values may be shown once.
Columns and labels:
[1] = test system: TA100; experiment: Bacterial cytotoxicity; assay type: cell-based
Source text: (§1) Data S2. Bacterial cytotoxicity of A41.
(§2) Test Concentration %Effect Cytotoxicity (% of control) […]

[2] = test system: TA1535; experiment: Bacterial cytotoxicity; assay type: cell-based
Source text: as §1, §2

[3] = biological target: Protein Tyrosine Kinase, Insulin Receptor (Homo sapiens, UniProt P06213); experiment: Safety screen; assay type: biochemical
Description: (§3) The kinase profiler was performed by the company Eurofins (Discovery, Panlab and Cerep).

[4] = test system: Calcium Channel L-Type, Dihydropyridine; experiment: Safety screen; assay type: binding, rat
[5] = biological target: A-Raf(h) (Homo sapiens, UniProt P10398); experiment: Kinase Profiler; assay type: biochemical
Description: (§4) Blood cell counts, kinase profiler, safety screen, bacterial cytotoxicity, Ames, micronucleus assays were performed by the company Eurofins (France). The kinase profiler was performed by the company Eurofins (Discovery, Panlab and Cerep).

[6] = biological target: Blk(m) (Mus musculus, UniProt P16277); experiment: Kinase Profiler; assay type: biochemical
Description: as §4

[7] = biological target: CDK14/cyclinY(h) (Homo sapiens, UniProt O94921); experiment: Kinase Profiler; assay type: biochemical
Description: as §4

[8] = test system: CK1(y); experiment: Kinase Profiler; assay type: biochemical, yeast
Description: as §3

[9] = biological target: cKit(h) (Homo sapiens, UniProt P10721); experiment: Kinase Profiler; assay type: biochemical
Description: as §4

[10] = biological target: Hck(h) (Homo sapiens, UniProt P08631); experiment: Kinase Profiler; assay type: biochemical
Description: as §3

[11] = biological target: IRAK4(h) (Homo sapiens, UniProt Q9NWZ3); experiment: Kinase Profiler; assay type: biochemical
Description: as §3

[12] = biological target: MLK3(h) (Homo sapiens, UniProt Q16584); experiment: Kinase Profiler; assay type: biochemical
Description: as §4

[13] = biological target: NEK7(h) (Homo sapiens, UniProt Q8TDX7); experiment: Kinase Profiler; assay type: biochemical
Description: as §3

[14] = biological target: PKA(h) (Homo sapiens, UniProt P17612); experiment: Kinase Profiler; assay type: biochemical
Description: as §4

[15] = biological target: PKCη(h) (Homo sapiens, UniProt P24723); experiment: Kinase Profiler; assay type: biochemical
Description: as §3

[16] = biological target: PKD2(h) (Homo sapiens, UniProt Q9BZL6); experiment: Kinase Profiler; assay type: biochemical
Description: as §3

[17] = biological target: Ret(h) (Homo sapiens, UniProt P07949); experiment: Kinase Profiler; assay type: biochemical
Description: as §3

[18] = biological target: Ros(h) (Homo sapiens, UniProt P08922); experiment: Kinase Profiler; assay type: biochemical
Description: as §4

[19] = biological target: SGK2(h) (Homo sapiens, UniProt Q9HBY8); experiment: Kinase Profiler; assay type: biochemical
Description: as §3

[20] = biological target: STK32A(h) (Homo sapiens, UniProt Q8WU08); experiment: Kinase Profiler; assay type: biochemical
Description: as §3

[21] = biological target: PI3K (p110a/p85a)(m) (Mus musculus, UniProt P42337); experiment: Kinase Profiler; assay type: biochemical
PI3K (p110a/p85a)(m), sequence (P42337 whole entry): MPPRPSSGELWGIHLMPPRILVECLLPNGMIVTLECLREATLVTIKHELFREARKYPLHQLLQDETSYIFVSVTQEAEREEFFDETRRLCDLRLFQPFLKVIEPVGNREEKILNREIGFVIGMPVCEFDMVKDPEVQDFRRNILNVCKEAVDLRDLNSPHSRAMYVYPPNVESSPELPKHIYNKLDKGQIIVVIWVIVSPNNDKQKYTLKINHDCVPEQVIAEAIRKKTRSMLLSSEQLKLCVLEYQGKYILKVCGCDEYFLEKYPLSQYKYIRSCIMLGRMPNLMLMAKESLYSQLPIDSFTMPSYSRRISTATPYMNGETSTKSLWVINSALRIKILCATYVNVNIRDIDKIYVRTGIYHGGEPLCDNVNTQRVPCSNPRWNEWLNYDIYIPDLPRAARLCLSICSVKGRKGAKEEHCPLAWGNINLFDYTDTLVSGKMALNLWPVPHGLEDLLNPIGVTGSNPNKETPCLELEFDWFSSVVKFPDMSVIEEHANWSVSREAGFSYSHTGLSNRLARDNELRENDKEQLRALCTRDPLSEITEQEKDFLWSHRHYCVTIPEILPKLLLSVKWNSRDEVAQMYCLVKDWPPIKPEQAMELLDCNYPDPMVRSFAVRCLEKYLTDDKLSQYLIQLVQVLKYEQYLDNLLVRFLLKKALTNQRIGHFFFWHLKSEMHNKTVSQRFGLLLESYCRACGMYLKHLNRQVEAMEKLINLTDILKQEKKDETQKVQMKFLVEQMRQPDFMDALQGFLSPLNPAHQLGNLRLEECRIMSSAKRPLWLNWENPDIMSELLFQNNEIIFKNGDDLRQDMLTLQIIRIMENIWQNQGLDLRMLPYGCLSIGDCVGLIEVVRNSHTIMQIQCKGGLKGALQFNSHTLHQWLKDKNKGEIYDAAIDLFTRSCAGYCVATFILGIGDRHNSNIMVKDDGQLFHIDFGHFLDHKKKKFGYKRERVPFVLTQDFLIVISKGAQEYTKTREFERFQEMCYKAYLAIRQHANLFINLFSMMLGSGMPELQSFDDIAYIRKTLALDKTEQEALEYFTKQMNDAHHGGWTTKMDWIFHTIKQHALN
PI3K (p110a/p85a)(m), sequence (P26450 2-724 partner): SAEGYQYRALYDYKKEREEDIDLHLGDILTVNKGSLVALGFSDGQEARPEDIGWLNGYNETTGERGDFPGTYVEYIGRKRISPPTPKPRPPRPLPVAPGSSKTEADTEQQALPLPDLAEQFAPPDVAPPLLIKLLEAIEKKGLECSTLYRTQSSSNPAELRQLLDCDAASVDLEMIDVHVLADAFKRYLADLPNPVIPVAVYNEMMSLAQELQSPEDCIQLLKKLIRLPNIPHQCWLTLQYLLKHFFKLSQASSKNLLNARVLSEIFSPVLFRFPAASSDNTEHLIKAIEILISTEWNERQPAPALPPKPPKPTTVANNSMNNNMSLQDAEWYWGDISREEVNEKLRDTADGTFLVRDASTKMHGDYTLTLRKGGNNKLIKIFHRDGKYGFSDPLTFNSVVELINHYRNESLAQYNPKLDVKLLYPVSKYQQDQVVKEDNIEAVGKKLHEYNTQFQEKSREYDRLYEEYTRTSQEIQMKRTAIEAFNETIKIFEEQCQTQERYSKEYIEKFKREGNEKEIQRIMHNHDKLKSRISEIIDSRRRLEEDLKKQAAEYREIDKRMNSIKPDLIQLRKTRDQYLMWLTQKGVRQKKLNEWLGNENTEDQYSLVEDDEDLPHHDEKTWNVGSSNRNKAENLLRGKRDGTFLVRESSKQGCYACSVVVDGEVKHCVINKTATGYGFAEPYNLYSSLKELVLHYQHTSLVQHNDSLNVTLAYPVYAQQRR
Description: as §4

Hck(h), sequence (P08631 whole entry): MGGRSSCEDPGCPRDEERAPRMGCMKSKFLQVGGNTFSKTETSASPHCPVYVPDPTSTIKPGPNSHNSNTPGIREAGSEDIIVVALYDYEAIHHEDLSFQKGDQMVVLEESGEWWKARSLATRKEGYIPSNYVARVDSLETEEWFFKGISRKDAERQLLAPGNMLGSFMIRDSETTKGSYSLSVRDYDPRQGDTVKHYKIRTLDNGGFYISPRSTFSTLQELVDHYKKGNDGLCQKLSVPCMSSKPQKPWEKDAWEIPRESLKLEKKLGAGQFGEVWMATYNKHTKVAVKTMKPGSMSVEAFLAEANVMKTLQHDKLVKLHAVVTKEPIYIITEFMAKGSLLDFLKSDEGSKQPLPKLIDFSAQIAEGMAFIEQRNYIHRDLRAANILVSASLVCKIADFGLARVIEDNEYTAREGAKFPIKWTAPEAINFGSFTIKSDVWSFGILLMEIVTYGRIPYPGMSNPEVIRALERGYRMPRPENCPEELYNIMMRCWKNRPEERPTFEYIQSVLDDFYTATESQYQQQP
PKCη(h), sequence (P24723 whole entry): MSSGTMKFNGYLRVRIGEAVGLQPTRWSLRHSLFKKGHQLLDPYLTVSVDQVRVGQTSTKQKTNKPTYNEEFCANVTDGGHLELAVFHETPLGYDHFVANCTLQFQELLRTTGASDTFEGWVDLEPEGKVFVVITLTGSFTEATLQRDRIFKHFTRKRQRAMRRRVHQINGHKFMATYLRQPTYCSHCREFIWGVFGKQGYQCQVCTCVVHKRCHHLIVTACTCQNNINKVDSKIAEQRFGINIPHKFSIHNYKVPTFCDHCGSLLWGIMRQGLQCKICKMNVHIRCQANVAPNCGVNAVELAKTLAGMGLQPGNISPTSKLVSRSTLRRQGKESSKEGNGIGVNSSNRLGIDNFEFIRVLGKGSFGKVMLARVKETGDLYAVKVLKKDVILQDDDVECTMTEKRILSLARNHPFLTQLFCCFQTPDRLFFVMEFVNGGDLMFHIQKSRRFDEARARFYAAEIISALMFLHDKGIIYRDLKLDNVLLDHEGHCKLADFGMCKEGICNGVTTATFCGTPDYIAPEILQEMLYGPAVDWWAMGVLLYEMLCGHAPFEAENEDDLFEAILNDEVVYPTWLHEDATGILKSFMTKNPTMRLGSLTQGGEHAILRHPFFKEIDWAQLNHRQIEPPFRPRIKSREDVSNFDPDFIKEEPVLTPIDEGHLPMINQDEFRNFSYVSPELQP
CDK14/cyclinY(h), sequence (O94921 whole entry): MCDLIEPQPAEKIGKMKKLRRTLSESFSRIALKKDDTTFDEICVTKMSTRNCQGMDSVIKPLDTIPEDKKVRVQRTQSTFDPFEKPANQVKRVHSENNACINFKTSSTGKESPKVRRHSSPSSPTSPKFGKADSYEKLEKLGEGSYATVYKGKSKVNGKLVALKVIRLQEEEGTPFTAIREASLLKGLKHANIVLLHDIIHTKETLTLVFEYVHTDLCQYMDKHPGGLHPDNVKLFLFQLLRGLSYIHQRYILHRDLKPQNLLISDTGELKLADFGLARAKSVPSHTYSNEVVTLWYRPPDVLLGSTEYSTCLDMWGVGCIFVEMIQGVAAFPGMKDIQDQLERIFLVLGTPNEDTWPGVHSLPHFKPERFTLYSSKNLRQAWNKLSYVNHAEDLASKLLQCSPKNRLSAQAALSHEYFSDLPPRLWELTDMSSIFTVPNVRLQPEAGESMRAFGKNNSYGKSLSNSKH
CDK14/cyclinY(h), sequence (Q8ND76 whole entry partner): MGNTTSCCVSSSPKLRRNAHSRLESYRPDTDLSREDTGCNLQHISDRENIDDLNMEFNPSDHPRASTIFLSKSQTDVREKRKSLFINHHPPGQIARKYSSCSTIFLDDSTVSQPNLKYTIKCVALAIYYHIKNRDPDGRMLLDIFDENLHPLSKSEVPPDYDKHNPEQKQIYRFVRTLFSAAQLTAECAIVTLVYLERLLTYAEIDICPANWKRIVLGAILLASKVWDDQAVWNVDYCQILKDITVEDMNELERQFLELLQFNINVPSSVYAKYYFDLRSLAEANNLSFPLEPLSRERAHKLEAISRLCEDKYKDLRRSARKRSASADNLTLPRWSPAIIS
MLK3(h), sequence (Q16584 whole entry): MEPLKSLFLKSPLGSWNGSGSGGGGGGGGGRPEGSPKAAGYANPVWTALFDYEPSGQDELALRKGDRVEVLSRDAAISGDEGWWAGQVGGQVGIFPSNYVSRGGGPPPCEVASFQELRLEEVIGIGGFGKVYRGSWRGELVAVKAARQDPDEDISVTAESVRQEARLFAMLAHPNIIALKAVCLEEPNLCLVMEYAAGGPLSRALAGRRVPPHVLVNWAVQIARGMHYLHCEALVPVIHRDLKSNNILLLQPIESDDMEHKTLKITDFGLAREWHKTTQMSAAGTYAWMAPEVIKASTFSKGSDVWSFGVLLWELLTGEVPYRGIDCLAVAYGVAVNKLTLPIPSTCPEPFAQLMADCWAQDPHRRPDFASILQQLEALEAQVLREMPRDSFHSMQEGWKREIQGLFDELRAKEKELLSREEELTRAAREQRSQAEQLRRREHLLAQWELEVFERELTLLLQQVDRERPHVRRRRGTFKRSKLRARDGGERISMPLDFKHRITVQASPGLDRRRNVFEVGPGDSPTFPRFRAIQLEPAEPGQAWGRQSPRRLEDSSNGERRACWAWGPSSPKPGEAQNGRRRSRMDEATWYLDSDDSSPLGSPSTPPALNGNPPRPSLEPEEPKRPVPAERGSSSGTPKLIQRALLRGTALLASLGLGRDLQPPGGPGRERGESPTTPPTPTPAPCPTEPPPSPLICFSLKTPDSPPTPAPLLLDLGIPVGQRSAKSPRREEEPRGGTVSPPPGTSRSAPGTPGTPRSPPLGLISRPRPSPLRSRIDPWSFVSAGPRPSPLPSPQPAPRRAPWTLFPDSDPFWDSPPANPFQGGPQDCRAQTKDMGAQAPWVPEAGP
NEK7(h), sequence (Q8TDX7 whole entry): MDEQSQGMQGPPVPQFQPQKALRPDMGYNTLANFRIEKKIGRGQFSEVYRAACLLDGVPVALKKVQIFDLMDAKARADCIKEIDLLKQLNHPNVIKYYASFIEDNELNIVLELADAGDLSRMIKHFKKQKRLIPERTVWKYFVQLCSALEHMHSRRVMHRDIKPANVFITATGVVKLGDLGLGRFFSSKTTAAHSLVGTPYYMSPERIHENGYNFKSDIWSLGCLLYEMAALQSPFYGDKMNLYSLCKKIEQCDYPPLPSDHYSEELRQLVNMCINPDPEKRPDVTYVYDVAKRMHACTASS

For `COc1ccc(OC)c(NS(=O)(=O)c2ccc(NC(=O)CCSc3ccc(C)cc3)cc2)c1` [Compound A41], the “%Effect, single replicates (1st, 2nd, 3rd)” value (“%Effect, single replicates” below) ([1]; - S9, 1.0E-04 M) was 222.5% and 205.5% and 199.0%, the “Cytotoxicity (% of control), Mean %Effect” value (“Cytotoxicity (% of control)” for short) ([1]; - S9, 1.0E-04 M) was 209.0% and the “%Effect, single replicates” value ([1]; - S9, 1.0E-05 M) was 116.5% and 108.6% and 92.9%. The “Cytotoxicity (% of control)” value ([1]; - S9, 1.0E-05 M) was 106.0%, the “%Effect, single replicates” value ([1]; - S9, 1.2E-06 M) was 103.4% and 99.5% and 92.9% and the “Cytotoxicity (% of control)” value ([1]; - S9, 1.2E-06 M) was 98.6%. For the same compound, the “%Effect, single replicates” value ([1]; - S9, 2.5E-05 M) was 113.9% and 111.3% and 100.8%, the “Cytotoxicity (% of control)” value ([1]; - S9, 2.5E-05 M) was 108.6% and the “%Effect, single replicates” value ([1]; - S9, 2.5E-06 M) was 106.0% and 103.4% and 92.9%. For the same compound, the “Cytotoxicity (% of control)” value ([1]; - S9, 2.5E-06 M) was 100.8%, the “%Effect, single replicates” value ([1]; - S9, 5.0E-05 M) was 112.6% and 53.1% and 102.1% and the “%Effect, single replicates” value ([1]; - S9, 5.0E-06 M) was 116.5% (2×) and 91.6%. For the same compound, the “Cytotoxicity (% of control)” value ([1]; - S9, 5.0E-06 M) was 108.2%, the “%Effect, single replicates” value ([1]; - S9, 6.0E-07 M) was 104.7% (2×) and 98.2% and the “Cytotoxicity (% of control)” value ([1]; - S9, 6.0E-07 M) was 102.5%. The “%Effect, single replicates” value ([2]; - S9, 1.0E-04 M) was 219.4% and 233.3% and 215.9%, the “Cytotoxicity (% of control)” value ([2]; - S9, 1.0E-04 M) was 222.9% and the “%Effect, single replicates” value ([2]; - S9, 1.0E-05 M) was 96.4% and 98.7% and 108.0%. The “Cytotoxicity (% of control)” value ([2]; - S9, 1.0E-05 M) was 101.0%, the “%Effect, single replicates” value ([2]; - S9, 1.2E-06 M) was 91.7% and 97.5% and 88.2% and the “Cytotoxicity (% of control)” value ([2]; - S9, 1.2E-06 M) was 92.5%. The “%Effect, single replicates” value ([2]; - S9, 2.5E-05 M) was 116.1% and 99.8% and 98.7%, the “Cytotoxicity (% of control)” value ([2]; - S9, 2.5E-05 M) was 104.9% and the “%Effect, single replicates” value ([2]; - S9, 2.5E-06 M) was 92.9% and 91.7% and 97.5%. The “Cytotoxicity (% of control)” value ([2]; - S9, 2.5E-06 M) was 94.0%, the “%Effect, single replicates” value ([2]; - S9, 5.0E-05 M) was 168.3% and 163.7% and 175.3% and the “Cytotoxicity (% of control)” value ([2]; - S9, 5.0E-05 M) was 169.1%. For the same compound, the “%Effect, single replicates” value ([2]; - S9, 5.0E-06 M) was 96.4% and 95.2% and 99.8%, the “Cytotoxicity (% of control)” value ([2]; - S9, 5.0E-06 M) was 97.1% and the “%Effect, single replicates” value ([2]; - S9, 6.0E-07 M) was 89.4% and 96.4% and 94.0%. The “Cytotoxicity (% of control)” value ([2]; - S9, 6.0E-07 M) was 93.3%, the “% inh.” value [3] was -25% and the “% inh.” value [4] was 85%. For the same compound, the “Activity(%)” value [5] was 85%, the “Activity(%)” value [6] was 87% and the “Activity(%)” value [7] was 89%. The “Activity(%)” value [8] was 98%, the “Activity(%)” value [9] was 101% and the “Activity(%)” value [10] was 111%. For the same compound, the “Activity(%)” value [11] was 99%, the “Activity(%)” value [12] was 115% and the “Activity(%)” value [13] was 97%. The “Activity(%)” value [14] was 84%, the “Activity(%)” value [15] was 118% and the “Activity(%)” value [16] was 100%. The “Activity(%)” value [17] was 104%, the “Activity(%)” value [18] was 139% and the “Activity(%)” value [19] was 117%. For the same compound, the “Activity(%)” value [20] was 100% and the “Activity(%)” value [21] was 102%.
